Target: T1, P450ZoGa (CYP236A2, WP_013995999) (Zobellia galactanivorans, UniProt G0L713)
T1 sequence (G0L713 1-387): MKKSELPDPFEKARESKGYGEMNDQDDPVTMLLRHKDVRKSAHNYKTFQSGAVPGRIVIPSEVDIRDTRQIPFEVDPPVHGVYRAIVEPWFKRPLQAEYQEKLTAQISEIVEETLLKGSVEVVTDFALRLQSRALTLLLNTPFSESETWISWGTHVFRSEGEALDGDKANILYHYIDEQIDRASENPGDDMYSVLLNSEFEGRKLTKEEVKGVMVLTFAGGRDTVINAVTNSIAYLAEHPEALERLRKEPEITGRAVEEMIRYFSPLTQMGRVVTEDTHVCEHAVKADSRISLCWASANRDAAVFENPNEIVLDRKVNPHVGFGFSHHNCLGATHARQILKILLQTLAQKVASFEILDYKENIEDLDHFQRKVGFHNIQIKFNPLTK
Experiment: crystal structure of soaked complex
Type: binding

Q: With `COC[C@H]1OC(O)[C@H](O)[C@@H](O)[C@H]1O` (stereo partly drawn) [G6Me, 6-O-methyl-D-galactose] as the compound, how does the Kd read?
A: The Kd was 980 ± 120 µM.

From paper PMC6292453 (Biochemical Journal, 2018)
